Results: patent publication US20080183282A1, “Use of lipid conjugates for the coating of stents and catheters” (priority 2006, published 2008)

Tested on: Naja Naja Snake Venom PLA2 enzyme
Assay: In vitro fluorometric PLA2 inhibition assay
Type: biochemical
Details: 0.1 mg/ml
Experimental: The reaction of the PLA2 enzyme and the PLA2 enzyme substrate 2-(6-(7-nitrobenz-2-oxa-1,3diazol-4-yl)amino) hexanoyl-1-hexadecanoyl-sn-glycero-3-phosphocholine (NHGP) yields a product, which can be detected using a fluorometer. […] indicates inhibition of the PLA2 enzyme.
Compound XXII and Compound XXV were solubilized and diluted in D-PBS, and tested at final concentrations of […], 0.125, 0.25, 0.5 and 1 mg/ml. […] 1 mM NHGP was diluted in D-PBS, for a final concentration of 1 μM. The positive control, Mefenamic Acid (Sigma, M-4267), was tested at a final concentration of 0.1 mg/ml. The PLA2 enzyme is derived from the Naja Naja Snake Venom (Sigma, P6139) and tested at a final concentration of 5 Units/ml. The reaction was carried out in 200 μl solution and initiated by addition of substrate. Fluorescence was read immediately and then every minute for 30 minutes for a total of 30 readings. The fluorometer was set as follows: Excitation 450/50; Emission 530/25; Gain 50.

For `Cc1cccc(Nc2ccccc2C(=O)O)c1C` [mefenamic acid, Mefenamic Acid], which “inhibition of the PLA2 enzyme” value is on record?
Its value is 41%.
